Patent US4898868A, “3-demethyl-4-fluoromevalonic acid derivatives, a process for the preparation thereof, pharmaceutical products based on these compounds, the use thereof, and intermediates” (Hoechst Aktiengesellschaft, priority 1987, dated 1990)

Experiments:
HMG-CoA reductase [1] = target: T1, HMG-CoA reductase (Rattus norvegicus, UniProt P51639); test: inhibition of HMG-CoA reductase activity on solubilized enzyme preparations from rat liver microsomes; type: biochemical; conditions: solubilized rat liver microsomal enzyme; mean of 3 parallel samples; optically pure compounds
T1 sequence (P51639 1-887): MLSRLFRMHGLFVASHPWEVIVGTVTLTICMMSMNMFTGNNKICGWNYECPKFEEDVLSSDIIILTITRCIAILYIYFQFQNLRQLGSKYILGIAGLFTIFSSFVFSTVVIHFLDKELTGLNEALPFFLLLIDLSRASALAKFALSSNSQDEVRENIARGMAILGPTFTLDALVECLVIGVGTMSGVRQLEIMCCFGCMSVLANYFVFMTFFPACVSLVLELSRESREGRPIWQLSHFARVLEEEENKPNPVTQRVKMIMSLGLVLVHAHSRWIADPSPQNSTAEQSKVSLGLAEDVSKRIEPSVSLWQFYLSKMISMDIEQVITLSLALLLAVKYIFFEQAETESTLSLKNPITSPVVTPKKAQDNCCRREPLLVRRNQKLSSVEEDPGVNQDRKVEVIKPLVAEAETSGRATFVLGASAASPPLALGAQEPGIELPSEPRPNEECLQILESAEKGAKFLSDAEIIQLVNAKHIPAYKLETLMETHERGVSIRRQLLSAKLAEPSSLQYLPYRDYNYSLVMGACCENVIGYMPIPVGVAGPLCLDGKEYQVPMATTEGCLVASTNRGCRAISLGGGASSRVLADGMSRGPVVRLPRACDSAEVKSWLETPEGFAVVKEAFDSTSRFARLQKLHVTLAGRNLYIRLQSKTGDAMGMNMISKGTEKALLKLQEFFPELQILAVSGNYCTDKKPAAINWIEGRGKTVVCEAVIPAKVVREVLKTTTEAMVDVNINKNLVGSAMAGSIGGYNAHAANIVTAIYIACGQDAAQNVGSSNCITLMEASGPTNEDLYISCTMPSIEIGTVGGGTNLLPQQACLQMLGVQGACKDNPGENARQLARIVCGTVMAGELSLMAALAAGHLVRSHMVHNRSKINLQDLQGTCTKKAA

[2] = tested on: cholesterol biosynthesis in HEP G2 cells; test: inhibition of cholesterol biosynthesis in HEP G2 cell cultures by incorporation of 14C-precursor (14C-acetate) in cholesterol; type: cell-based; conditions: Homo sapiens, HepG2, 1 hour preincubation, 3 hours with 14C-acetate
Procedure: In addition, the inhibition of cholesterol biosynthesis in cell cultures was tested with selected compounds by the incorporation of ^14 C-precursor in cholesterol.
Monolayers of HEP G2 cells in Lipoprotein-free nutrient medium were incubated with various concentrations of the test substances for 1 hour. After addition of the ^14 C-labeled precursor sodium ^14 C-acetate, the incubation was continued for 3 hours. Then ^3 H-cholesterol was added as internal standard, and some of the cells were hydrolyzed with alkali. The lipids were extracted from the hydrolyzed cells using chloroform/methanol. Carrier cholesterol was added to this lipid mixture which was then subjected to preparative thin-layer chromatography, the cholesterol band was visualized with iodine vapor and then isolated, and the amount of ^14 C-cholesterol formed from the ^14 C-precursor was determined by scintigraphy. Cellular protein was determined in an aliquot of the cells, so that it is possible to calculate the amount of ^14 C-cholesterol formed from the ^14 C-precursor per mg of cellular protein in unit time. The solvent control is used for comparison with the inhibitory effect of an added test product, so that the inhibition of cholesterol biosynthesis at a particular molar concentration of the test product in the medium can be stated. The absence of cell damage due to the action of the products was confirmed in an aliquot of the cell culture by the morphology (light microscope). The IC50 values of the test products are stated in mol/l (in Table II), and their relative potencies are compared with mevinolin sodium salt and mevinolin lactone (comparison of the IC50 values).

total serum cholesterol = test: cholesterol-lowering efficacy in normolipidemic male New Zealand rabbits; type: in vivo, rabbit
Procedure: (§1) The cholesterol-lowering efficacy was investigated in the following test on rabbits Normolipidemic male New Zealand rabbits (weight 3-3.5 kg, 4-6 animals per test group) received the test compounds suspended in a 1% strength aqueous carboxymethylcellulose solution (®Tylose) by gavage each day in the morning; the control group received only Tylose solution. Venous blood was taken every 3 to 4 days 20 hours after the oral administration of the solutions. The total cholesterol content in these samples was determined enzymatically using the Boehringer Mannheim assay kit (CHOD-PAP-high performance method). The serum cholesterol level in the group treated with test compounds was compared with that in the control group. The treatment period was followed by a period in which the test compounds were no longer administered.

liver enzyme levels = liver enzyme levels in the rabbit test; type: in vivo; conditions: 10 mg/kg/day by gavage; rabbits
Procedure: as §1
The serum cholesterol levels returned to their initial value within 3 days after discontinuation of the product (after 10 days).

HMG-CoA reductase [3] = conditions: Endo et al. 1976; Brown et al. 1976; cited from earlier work

Row | Structure (SMILES) | IC50 (HMG-CoA reductase [1]) [µM] | IC50 [2] [µM] | further results
1 | Cc1cc(C)c(/C=C/[C@@H](O)[C@H](F)[C@@H](O)CC(=O)O)c(-c2ccc(F)cc2)c1 | 0.098 |  | 
2 | CC(C)c1nc(-c2ccccc2)cc(-c2ccc(F)cc2)c1/C=C/[C@H]1OC(=O)C[C@H](O)[C@H]1F [Example 34, 3(S),5(R)-Dihydorxy-4(R)-fluoro-7-(2-isopropyl-4-parafluorophenyl-6-phenyl-3-pyridyl)hept-6E-enoic acid lactone] |  | 0.11 | time within which the 40% lowering of total cholesterol was reached (total serum cholesterol; 10 mg/kg/day by gavage): ≤ 3 days; lowering of total cholesterol (total serum cholesterol; 10 mg/kg/day by gavage in 1% carboxymethylcellulose, within 3 days, vs control group): 40%; course of total cholesterol lowering during administration (total serum cholesterol; 10 mg/kg/day by gavage, 10 days): remained constant throughout the administration; time for serum cholesterol levels to return to initial value after discontinuation (total serum cholesterol; 10 mg/kg/day by gavage, discontinuation after 10 days): ≤ 3 days; changes in the liver enzyme levels (liver enzyme levels): without eliciting abnormal or pathological changes in the liver enzyme levels
3 | CC(C)c1nc(-c2ccccc2)nc(-c2ccc(F)cc2)c1/C=C/[C@H]1OC(=O)C[C@H](O)[C@H]1F [Example 38, 3(S),5(R)-dihydroxy-4(R)-fluoro-7-[6-parafluorophenyl-4-isopropyl-2-phenyl-1,3-diazin-5-yl]hept-6E-enoic acid lactone] |  | 0.25 | 
4 | CC[C@H](C)C(=O)O[C@H]1CCC=C2C=C[C@H](C)[C@H](CC[C@@H]3C[C@@H](O)CC(=O)O3)[C@H]21 [compactin] |  |  | inhibition of HMG-CoA reductase (in words) (HMG-CoA reductase [3]): potent competitive inhibitor of HMG-CoA reductase

Now from value to molecule, other results behind:

Row | IC50 (HMG-CoA reductase [1]) [µM] | Structure (SMILES) | IC50 [2] [µM] | further results
5 | 0.0085 | CC(C)c1nc(-c2ccccc2)cc(-c2ccc(F)cc2)c1/C=C/[C@@H](O)[C@H](F)[C@@H](O)CC(=O)O |  | 
6 | 0.02 | CC(C)c1nc(-c2ccccc2)cc(-c2ccc(F)cc2)c1CC[C@@H](O)[C@@H](F)[C@@H](O)CC(=O)O |  | 
7 | 0.036 | CC(C)c1nc(-c2ccccc2)nc(-c2ccc(F)cc2)c1/C=C/[C@@H](O)[C@H](F)[C@@H](O)CC(=O)O |  | 
8 | 0.0063 | CC(C)c1cc(-c2ccccc2)cc(-c2ccc(F)cc2)c1/C=C/[C@@H](O)[C@H](F)[C@@H](O)CC(=O)O |  | 
9 | 2 | O=C1C[C@H](O)[C@@H](F)[C@@H](CSc2c(Cl)cc(Cl)cc2C(c2ccc(F)cc2)c2ccc(F)cc2)O1 [Example 12, 6-(2,4-Dichloro-6-(bisparafluorophenylmethyl)phenylthio)-3(R),5(S)-dihydroxy-4(R)-fluorohexanoic acid lactone] | 5.5 | 
10 | 0.032 | CCCCc1cc(Cl)cc(Cl)c1/C=C/[C@H]1OC(=O)C[C@H](O)[C@H]1F [Example 18, 7-(2-n-Butyl-4,6-dichlorophenyl)-3(S),5(R)-dihydroxy-4(R)-fluoro-E-hept-6-enoic acid lactone] | 0.32 | 
